Read-outs that look alike come from different tables or passages of the source.
What was measured:
[1] = target: T1, androgen receptor of rat ventral prostate (Rattus norvegicus, UniProt P15207); experiment: Competition with [3H]R1881 for androgen receptor binding, cell-free assay (Table 1)
T1 construct: androgen receptors isolated, as described in Chang, C., et al., J. Steroid Biochem., 27:123 (1987), from rat ventral prostate; from tissue; host or cells: rat ventral prostate
T1 sequence (P15207 1-902): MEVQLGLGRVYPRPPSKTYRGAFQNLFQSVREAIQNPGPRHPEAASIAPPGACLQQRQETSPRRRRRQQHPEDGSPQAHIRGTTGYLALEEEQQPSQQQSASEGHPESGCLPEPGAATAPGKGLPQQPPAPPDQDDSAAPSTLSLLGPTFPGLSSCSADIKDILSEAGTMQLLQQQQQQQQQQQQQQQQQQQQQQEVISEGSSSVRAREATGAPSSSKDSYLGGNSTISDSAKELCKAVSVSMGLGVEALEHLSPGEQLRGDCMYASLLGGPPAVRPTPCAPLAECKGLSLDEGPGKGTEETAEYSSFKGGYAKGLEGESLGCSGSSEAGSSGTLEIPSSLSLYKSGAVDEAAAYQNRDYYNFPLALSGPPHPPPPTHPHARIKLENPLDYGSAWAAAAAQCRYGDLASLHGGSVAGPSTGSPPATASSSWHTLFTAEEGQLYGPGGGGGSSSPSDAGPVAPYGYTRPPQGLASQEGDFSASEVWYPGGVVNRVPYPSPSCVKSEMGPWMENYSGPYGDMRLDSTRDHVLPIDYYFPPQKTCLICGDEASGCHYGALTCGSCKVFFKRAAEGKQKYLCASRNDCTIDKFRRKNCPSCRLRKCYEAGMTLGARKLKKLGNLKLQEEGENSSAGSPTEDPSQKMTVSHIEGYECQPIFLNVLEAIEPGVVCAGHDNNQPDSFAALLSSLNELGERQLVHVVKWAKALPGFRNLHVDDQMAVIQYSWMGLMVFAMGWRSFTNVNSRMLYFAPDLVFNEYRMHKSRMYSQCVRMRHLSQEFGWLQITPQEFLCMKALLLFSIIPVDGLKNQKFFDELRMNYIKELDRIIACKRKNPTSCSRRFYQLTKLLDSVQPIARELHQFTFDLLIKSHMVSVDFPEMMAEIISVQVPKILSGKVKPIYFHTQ

androgen receptors = settings: Chang et al. 1987; cited from earlier work
ventral prostate = settings: rats; Chang et al. 1987; cited from earlier work
[2] = in parentheses, relative to R1881 = 100.00, cell-free, rat ventral prostate

c1ccc2c(c1)CCc1ccccc1-2 [9,10-dihydrophenanthrene, reference compound]
IC50 [1]: 10 µM
Relative receptor binding activity (RBA) [1, 2]: 0.20
interaction with androgen receptors in cell-free systems (androgen receptors): interacts with androgen receptors in cell-free systems
inhibition of growth of the ventral prostate (ventral prostate): inhibits the growth of the ventral prostate in rats

O=C1CCc2c1ccc1c2CCc2ccccc2-1 (racemic) [Compound 6, 6,7,16,17-Tetrahydro-15H-cyclopenta[a]phenanthren-17-one]
IC50 [1]: 17.8 µM
Relative receptor binding activity (RBA) [1]: 0.11

1-[2-(9(or 10)-methyl-9,10-dihydrophenanthryl)]-1-ethanol [Compound 11]
Relative receptor binding activity (RBA) [1]: 0.29
IC50 ([1]; read-out: IC50 (concentration of test compound needed to show 50% inhibition of [3H]R1881 binding), [3H]R1881 (17a-methyltrienolone) binding, androgen receptor of rat ventral prostate, cell-free): 6.8 µM

OCC(O)c1ccc2c(c1)CCc1ccccc1-2 (stereo not shown) [Compound 27, 2-(2',3'-dihydroxyethyl)-9,10-dihydrophenanthrene]
IC50 [1]: 47.9 µM
Relative receptor binding activity (RBA) [1, 2]: 0.04

OCCc1ccc2c(c1)CCc1ccccc1-2 [Compound 26, 2-(2'-hydroxyethyl)-9,10-dihydrophenanthrene]
IC50 [1]: 3.6 µM
Relative receptor binding activity (RBA) [1, 2]: 0.56

c1cc2c(c3c1CCCC3)CCCC2 [1,2,3,4,5,6,7,8-octahydro-phenanthrene, reference compound]
IC50 [1]: 200 µM
Relative receptor binding activity (RBA) [1, 2]: 0.01

c1ccc2c(c1)ccc1ccccc12 [phenanthrene, reference compound]
IC50 [1]: 800 µM
Relative receptor binding activity (RBA) [1, 2]: 0.0025

OC1CCc2c1ccc1c2CCc2ccccc2-1 (stereo not shown) [Compound 7, 6,7,16,17-tetrahydro-15H-cyclo-penta[a]phen-anthren-17-ol]
IC50 [1]: 4.2 µM
Relative receptor binding activity (RBA) [1]: 0.48

c1ccc2c(c1)CCc1ccccc1C2 [10,11-dihydro-5H-dibenzo-[a,d]cycloheptene, reference compound]
IC50 [1]: 60 µM
Relative receptor binding activity (RBA) [1, 2]: 0.03

Oc1ccc2c(c1)CCc1ccccc1-2 [Compound 13, 2-Hydroxy-9,10-dihydrophenanthrene]
IC50 [1]: 7.9 µM
Relative receptor binding activity (RBA) [1, 2]: 0.25

CC(O)c1ccc2c(c1)CCc1ccccc1-2 (stereo not shown) [Compound 9, 1-[2-(9,10-Dihydrophenanthryl)]-1-ethanol]
IC50 [1]: 2.6 µM
Relative receptor binding activity (RBA) [1, 2]: 0.77

O=C1CCc2c(ccc3c2ccc2c(O)cccc23)C1 [Compound 25, 4'-oxo-7,8-cyclohexenophenanthren-1-ol]
IC50 [1]: > 100 µM
Relative receptor binding activity (RBA) [1]: < 0.02

O=C1CCc2c(ccc3c2CCc2c(O)cccc2-3)C1 [Compound 22, 4'-oxo-7,8-cyclohexeno-9,10-dihydrophenanthren-1-ol]
IC50 [1]: 1.3 µM
Relative receptor binding activity (RBA) [1, 2]: 1.53
